Experimental data published in US11377442B2, “Small molecule agonists and antagonists of NR2F6 activity” (ZANDER THERAPEUTICS, INC., priority 2016, dated 2022).
Like-named read-outs stand apart in the source and are kept apart here.

Experiments:
Format in all cases: cell-based
NR2F6 = target: T1, NR2F6 (Homo sapiens, UniProt P10588); assay: NR2F6 agonist screening, Firefly signal cmpd/DMSO
T1 construct: expressed in transfected cells; also transient transfection
T1 sequence (P10588 1-404): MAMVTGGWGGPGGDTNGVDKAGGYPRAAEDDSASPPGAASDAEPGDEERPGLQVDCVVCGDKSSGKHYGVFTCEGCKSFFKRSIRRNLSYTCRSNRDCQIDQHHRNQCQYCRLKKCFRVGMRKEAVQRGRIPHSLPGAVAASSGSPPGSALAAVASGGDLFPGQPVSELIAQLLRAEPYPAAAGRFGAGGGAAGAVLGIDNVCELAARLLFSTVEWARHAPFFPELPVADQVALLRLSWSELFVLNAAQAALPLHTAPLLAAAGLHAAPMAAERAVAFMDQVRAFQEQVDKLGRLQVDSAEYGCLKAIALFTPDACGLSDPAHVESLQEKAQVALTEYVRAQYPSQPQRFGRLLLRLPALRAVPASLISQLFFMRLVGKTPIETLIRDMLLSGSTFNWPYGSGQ

ERα [1] = target: T2, ERα (Homo sapiens, UniProt P03372); assay: Counterscreening, Firefly signal with ERα transient transfection (Firefly_ERa); settings: 10 uM
T2 construct: expressed in transfected cells
T2 sequence (P03372 1-595): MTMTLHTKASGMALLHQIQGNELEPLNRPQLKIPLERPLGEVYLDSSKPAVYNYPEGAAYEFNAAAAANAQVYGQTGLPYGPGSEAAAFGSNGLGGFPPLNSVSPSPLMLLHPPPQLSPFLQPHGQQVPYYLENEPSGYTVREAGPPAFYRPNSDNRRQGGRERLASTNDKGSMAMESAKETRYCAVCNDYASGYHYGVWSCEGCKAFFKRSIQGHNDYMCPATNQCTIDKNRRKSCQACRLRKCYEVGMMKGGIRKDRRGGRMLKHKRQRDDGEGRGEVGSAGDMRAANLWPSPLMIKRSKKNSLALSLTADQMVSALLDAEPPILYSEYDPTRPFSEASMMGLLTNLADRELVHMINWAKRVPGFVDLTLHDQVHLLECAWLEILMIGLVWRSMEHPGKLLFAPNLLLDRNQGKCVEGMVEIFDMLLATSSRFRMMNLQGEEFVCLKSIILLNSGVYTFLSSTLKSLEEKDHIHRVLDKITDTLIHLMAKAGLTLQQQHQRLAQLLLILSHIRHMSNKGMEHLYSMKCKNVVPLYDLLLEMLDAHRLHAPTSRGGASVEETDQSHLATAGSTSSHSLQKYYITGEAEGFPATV
Description: The methodology for screening candidate compounds as NR2F6 agonists was as follows: For primary screening, hit criteria was ACT %>DMSO control+5*SD (DSO control) at 10 μM, or any compound with S/B>2. For rescreening, hit criteria was ACT %>DMSO control+3*SD (DSO control) in each replicate at 10 μM. For counterscreening, hit criteria was mean ACT<DMSO control+3*SD (DMSO control) with ERα transient transfection in duplicate at 10 μM.

Renilla = Renilla signal in NR2F6 agonist screening, cmpd/DMSO; settings: for fold induction at 2 µM / fold induction at 10 µM / fold induction at 40 µM: Renilla, read-out: Renilla F4, cmpd/DMSO (mean)
Renilla_ERa = assay: Renilla signal in ERα counterscreen (Renilla_ERa); settings: for fold induction at 2 µM / fold induction at 10 µM / fold induction at 40 µM: read-out: Renilla ERalpha transient, cmpd/DMSO (mean)
ERα [2] = target: T2, ERα; assay: Counterscreening, Firefly signal with ERα transient transfection (Firefly_ERa)

Compound	Firefly F4, cmpd/DMSO (mean) (NR2F6; 2 uM, clone F4)	Firefly F4, cmpd/DMSO (mean) (NR2F6; 10 uM, clone F4)	Firefly F4, cmpd/DMSO (mean) (NR2F6; 40 uM, clone F4)	Firefly ERalpha transient, cmpd/DMSO (mean) (ERα [1])	Firefly ERalpha transient, cmpd/DMSO (mean) (ERα [2]; 2 uM)	Firefly ERalpha transient, cmpd/DMSO (mean) (ERα [2]; 40 uM)	Firefly F4, cmpd/DMSO (mean) (NR2F6; Table 15, 2 uM)	Firefly F4, cmpd/DMSO (mean) (NR2F6; Table 15, 10 uM)	Firefly F4, cmpd/DMSO (mean) (NR2F6; Table 15, 40 uM)	Firefly ERalpha transient, cmpd/DMSO (mean) (ERα [1]; Table 15)	Firefly ERalpha transient, cmpd/DMSO (mean) (ERα [2]; Table 15, 2 uM)	Firefly ERalpha transient, cmpd/DMSO (mean) (ERα [2]; Table 15, 40 uM)	fold induction at 2 µM (Renilla; 2 uM, clone F4)	fold induction at 10 µM (Renilla; 10 uM, clone F4)	fold induction at 40 µM (Renilla; 40 uM, clone F4)	fold induction at 2 µM (Renilla_ERa; 2 uM)	fold induction at 10 µM (Renilla_ERa; 10 uM)	fold induction at 40 µM (Renilla_ERa; 40 uM)	fold induction at 2 µM (Renilla; Table 15, 2 uM)	fold induction at 10 µM (Renilla; Table 15, 10 uM)	also measured
CS(=O)(=O)Nc1ccc([N+](=O)[O-])c2nonc12 [Compound Z13]	–	–	–	–	–	–	1.0	0.9	1.6	1.7	1.2	1.1	–	–	–	–	–	–	–	–	Renilla F4, cmpd/DMSO (mean) (Renilla; Table 15, 2 uM): 0.8; Renilla F4, cmpd/DMSO (mean) (Renilla; Table 15, 10 uM): 0.7; Renilla F4, cmpd/DMSO (mean) (Renilla; Table 15, 40 uM): 0.4; Renilla ERalpha transient, cmpd/DMSO (mean) (Renilla_ERa; Table 15, 2 uM): 0.8; Renilla ERalpha transient, cmpd/DMSO (mean) (Renilla_ERa; Table 15, 10 uM): 0.6; Renilla ERalpha transient, cmpd/DMSO (mean) (Renilla_ERa; Table 15, 40 uM): 0.4
O=c1cccc2n1CC1CC2CN(c2nc(N3CCCC3)nc(N3CCCC3)n2)C1 (stereo not shown) [Compound 26]	1.0	1.1	1.3	1.3	1.0	1.1	–	–	–	–	–	–	1	0.7	0.7	0.9	1	1	–	–	–
COc1cccc(-c2noc(Cn3nccc(Cl)c3=O)n2)c1 [Compound Z3]	–	–	–	–	–	–	1.5	1.1	1.6	2.6	2.2	1.7	–	–	–	–	–	–	1.5	1.4	fold induction at 40 µM (Renilla; Table 15, 40 uM): 0.9; fold induction at 2 µM (Renilla_ERa; Table 15, 2 uM): 1.1; fold induction at 10 µM (Renilla_ERa; Table 15, 10 uM): 1; fold induction at 40 µM (Renilla_ERa; Table 15, 40 uM): 0.9
Cc1cc(-c2ccccc2)nc(Nc2nc(-c3ccccc3)c(CC(=O)O)s2)n1 [Compound 30]	1.5	1.6	1.8	1.5	1.1	1.3	–	–	–	–	–	–	1.2	2.3	3.4	1.2	1.2	1	–	–	–
Cc1cc(C)c2ncc(C(=O)O)c(NCCCN(C)C)c2c1 [Compound Z28]	1.0	0.9	1.3	1.1	1.8	1.3	–	–	–	–	–	–	1	1.2	1.2	1.1	1.3	1	–	–	–

Continued, in another order:

Firefly F4, cmpd/DMSO (mean) (NR2F6; 2 uM, clone F4)	Firefly F4, cmpd/DMSO (mean) (NR2F6; 10 uM, clone F4)	Firefly F4, cmpd/DMSO (mean) (NR2F6; 40 uM, clone F4)	Firefly ERalpha transient, cmpd/DMSO (mean) (ERα [1])	Firefly ERalpha transient, cmpd/DMSO (mean) (ERα [2]; 2 uM)	Firefly ERalpha transient, cmpd/DMSO (mean) (ERα [2]; 40 uM)	Firefly F4, cmpd/DMSO (mean) (NR2F6; Table 15, 2 uM)	Firefly F4, cmpd/DMSO (mean) (NR2F6; Table 15, 10 uM)	Firefly F4, cmpd/DMSO (mean) (NR2F6; Table 15, 40 uM)	Firefly ERalpha transient, cmpd/DMSO (mean) (ERα [1]; Table 15)	Firefly ERalpha transient, cmpd/DMSO (mean) (ERα [2]; Table 15, 2 uM)	Firefly ERalpha transient, cmpd/DMSO (mean) (ERα [2]; Table 15, 40 uM)	Compound	fold induction at 2 µM (Renilla; 2 uM, clone F4)	fold induction at 10 µM (Renilla; 10 uM, clone F4)	fold induction at 40 µM (Renilla; 40 uM, clone F4)	fold induction at 2 µM (Renilla_ERa; 2 uM)	fold induction at 10 µM (Renilla_ERa; 10 uM)	fold induction at 40 µM (Renilla_ERa; 40 uM)	fold induction at 2 µM (Renilla; Table 15, 2 uM)	fold induction at 10 µM (Renilla; Table 15, 10 uM)	also measured
0.8	1.2	0.5	0.6	0.8	0.7	–	–	–	–	–	–	COc1ccc(-c2cc3n(n2)C(N)=C(C#N)C(c2ccc(N4CCOCC4)cc2)(C(F)(F)F)N3)cc1OC (stereo not shown) [Compound Z45]	1.2	1.2	1.1	1.1	0.8	1	–	–	–
1.6	3.8	0.7	10.3	2.0	0.9	–	–	–	–	–	–	CCOC(=O)c1cnc2cc(C)c(C)cc2c1NCCCN(C)C [Compound Z34]	1.2	0.8	0.6	1.5	1	0.7	–	–	activity (in words) (NR2F6; screening result): particularly good activity
0.8	0.7	0.6	0.4	1.0	0.4	–	–	–	–	–	–	N#CC1=C(N)n2nc(-c3ccccc3)cc2NC1(c1ccc(N2CCOCC2)cc1)C(F)(F)F (stereo not shown) [Compound Z49]	1	0.7	0.8	1	0.7	0.8	–	–	–
1.3	0.8	0.8	0.9	1.4	1.6	–	–	–	–	–	–	N#Cc1c(C(F)(F)F)nc2ccc(Cl)cc2c1N1CCOCC1 [Compound Z43]	1	0.9	0.7	1	1	0.9	–	–	–
–	–	–	–	–	–	0.8	1.0	0.8	1.0	1.4	0.4	CCOC(=O)c1cnc2c(C)cc(C)cc2c1NCCCOC [Compound Z71]	–	–	–	–	–	–	1.1	0.9	fold induction at 40 µM (Renilla; Table 15, 40 uM): 0.4; fold induction at 2 µM (Renilla_ERa; Table 15, 2 uM): 1; fold induction at 10 µM (Renilla_ERa; Table 15, 10 uM): 1; fold induction at 40 µM (Renilla_ERa; Table 15, 40 uM): 0.5
–	–	–	–	–	–	0.9	4.5	0.8	6.5	1.5	0.8	CCOC(=O)c1cnc2c(C)cc(C)cc2c1NCCCN [Compound Z58]	–	–	–	–	–	–	1.3	1.2	fold induction at 40 µM (Renilla; Table 15, 40 uM): 0.8; fold induction at 2 µM (Renilla_ERa; Table 15, 2 uM): 1.2; fold induction at 10 µM (Renilla_ERa; Table 15, 10 uM): 1.1; fold induction at 40 µM (Renilla_ERa; Table 15, 40 uM): 0.7
0.7	1.8	0.7	1.6	1.2	5.8	–	–	–	–	–	–	CCOC(=O)c1cnc2c(Cl)cc(Cl)cc2c1NCCCN1CCCC1 [Compound Z36]	1	1.8	0.6	1.2	1.6	0.8	–	–	–
–	–	–	–	–	–	1.5	1.1	1.2	1.5	1.1	0.7	CCOC(=O)c1cnc2c(C)cc(C)cc2c1N1CCC(N(C)C)CC1 [Compound Z68]	–	–	–	–	–	–	0.9	1	fold induction at 40 µM (Renilla; Table 15, 40 uM): 0.6; fold induction at 2 µM (Renilla_ERa; Table 15, 2 uM): 1.1; fold induction at 10 µM (Renilla_ERa; Table 15, 10 uM): 0.9; fold induction at 40 µM (Renilla_ERa; Table 15, 40 uM): 0.6
